Measured values reported in PubChem BioAssay AID200 (DTP/NCI, 2004).
Several values for one entry are separate records, joined by “and”; a condition that tells them apart may be missing. Identical values can stand only once. Inconclusive results and toxic doses are left out.

System: B6C3F1 mice, B16 melanoma ip, median survival T/C
Assay: NCI In Vivo Anticancer Drug Screen. Data for tumor model B16 Melanoma (intraperitoneal) in B6C3F1 mice
Conditions: endpoint: median survival time, schedule: Q01DX009 (ip), higher = longer survival
Method in brief: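 Values are T/C ratios: the measurement in treated animals divided by that in vehicle-treated controls, using survival or tumor size in mice carrying transplantable tumors.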

[1] = dose: 25.0 mg/kg/injection, vehicle: saline with Tween-80
[2] = dose: 50.0 mg/kg/injection, vehicle: saline with Tween-80
[3] = dose: 6.25 mg/kg/injection, vehicle: Klucel (hydroxypropylcellulose) (HPC)
[4] = dose: 12.5 mg/kg/injection, vehicle: Klucel (hydroxypropylcellulose) (HPC)
[5] = dose: 25.0 mg/kg/injection, vehicle: Klucel (hydroxypropylcellulose) (HPC)
[6] = dose: 50.0 mg/kg/injection, vehicle: Klucel (hydroxypropylcellulose) (HPC)
[7] = dose: 100.0 mg/kg/injection, vehicle: Klucel (hydroxypropylcellulose) (HPC)
[8] = dose: 6.25 mg/kg/injection, vehicle: saline
[9] = dose: 12.5 mg/kg/injection, vehicle: saline

Question: `CCOC(=O)c1cn(C)c2c1C(O)=C(C(=O)OC)CC(=O)N2` was tested. Which T/C [1] did it give?
Answer: Its T/C is 92 % of control.

Question: And the T/C [2]?
Answer: Its T/C is 96 % of control.

Question: And the T/C (dose: 100.0 mg/kg/injection, vehicle: saline with Tween-80)?
Answer: Its T/C is 96 % of control.

Question: And the T/C (dose: 200.0 mg/kg/injection, vehicle: saline with Tween-80)?
Answer: The T/C was 96 % of control.

Question: And the T/C (dose: 400.0 mg/kg/injection, vehicle: saline with Tween-80)?
Answer: The T/C was 92 % of control.

Question: How did the T/C (dose: 1.5 mg/kg/injection, vehicle: water) turn out when `O=NN(CCCl)C(=O)NCCO` was run?
Answer: Its T/C is 102 % of control.

Question: And the T/C (dose: 1.56 mg/kg/injection, vehicle: water)?
Answer: The T/C was 122 % of control.

Question: What about the T/C (dose: 3.0 mg/kg/injection, vehicle: water) of the same compound?
Answer: The T/C was 104 % of control.

Question: And the T/C (dose: 3.12 mg/kg/injection, vehicle: water)?
Answer: The T/C was 189 % of control.

Question: And the T/C (dose: 6.0 mg/kg/injection, vehicle: water)?
Answer: The T/C was 105 % of control.

Question: And the T/C (dose: 6.25 mg/kg/injection, vehicle: water)?
Answer: Its T/C is 201 % of control.

Question: What about the T/C (dose: 12.0 mg/kg/injection, vehicle: water) of the same compound?
Answer: Its T/C is 109 % of control.

Question: And the T/C (dose: 12.5 mg/kg/injection, vehicle: water)?
Answer: Its T/C is 194 % of control.

Question: For `CCOc1ccc(NC(=O)C(C(C)N2CCCCC2)N2CCCCC2)cc1` (stereo unspecified), which T/C (dose: 12.5 mg/kg/injection, vehicle: saline with Tween-80) is on record?
Answer: The T/C was 102 % of control.

Question: What about the T/C [1] of the same compound?
Answer: Its T/C is 94 % of control.

Question: What about the T/C [2] of the same compound?
Answer: The T/C was 93 % of control.

Question: Which T/C (dose: 50.0 mg/kg/injection, vehicle: suspension in saline) does the source give for `N[C@@H](Cc1c[nH]c2ccccc12)C(=O)Nc1nncs1` here?
Answer: Its T/C is 94 % of control.

Question: What about the T/C (dose: 100.0 mg/kg/injection, vehicle: suspension in saline) of the same compound?
Answer: The T/C was 95 % of control.

Question: And the T/C (dose: 200.0 mg/kg/injection, vehicle: suspension in saline)?
Answer: Its T/C is 103 % of control.

Question: What about the T/C (dose: 400.0 mg/kg/injection, vehicle: suspension in saline) of the same compound?
Answer: The T/C was 106 % of control.

Question: What about the T/C (dose: 800.0 mg/kg/injection, vehicle: suspension in saline) of the same compound?
Answer: The T/C was 109 % of control.

Question: Which results are given for `COc1ccc2[nH]c3c(c2c1)CCNC3CC(C)CCC=C(C)C` (stereo unspecified)?
Answer: T/C [3]: 99 % of control; T/C [4]: 88 % of control; T/C [5]: 97 % of control; T/C [6]: 102 % of control; T/C [7]: 105 % of control

Question: What does the source list for `Brc1c(NC2=NCCN2)ccc2nccnc12`?
Answer: T/C (dose: 1.56 mg/kg/injection, vehicle: saline): 100 % of control; T/C (dose: 3.12 mg/kg/injection, vehicle: saline): 96 % of control; T/C [8]: 102 % of control; T/C [9]: 94 % of control and 106 % of control; T/C (dose: 25.0 mg/kg/injection, vehicle: saline): 109 % of control and 102 % of control; T/C (dose: 50.0 mg/kg/injection, vehicle: saline): 112 % of control and 104 % of control

Question: How did the T/C (dose: 1.56 mg/kg/injection, vehicle: Klucel (hydroxypropylcellulose) (HPC)) turn out when `Cn1c(N)c(C(=O)/C=C/c2ccccc2)c(=O)n(C)c1=O` was run?
Answer: Its T/C is 101 % of control.

Question: And the T/C (dose: 3.12 mg/kg/injection, vehicle: Klucel (hydroxypropylcellulose) (HPC))?
Answer: The T/C was 107 % of control.

Question: And the T/C [3]?
Answer: Its T/C is 106 % of control.

Question: And the T/C [4]?
Answer: The T/C was 104 % of control.

Question: And the T/C [5]?
Answer: The T/C was 105 % of control.

Question: And the T/C [6]?
Answer: The T/C was 116 % of control.

Question: With `COc1cc(OC)c(OC)cc1/C=C\c1ccnc2ccccc12` as the compound, how does the T/C [4] read?
Answer: Its T/C is 98 % of control.

Question: And the T/C [5]?
Answer: The T/C was 105 % of control.

Question: And the T/C [6]?
Answer: The T/C was 108 % of control and 111 % of control.

Question: And the T/C [7]?
Answer: Its T/C is 120 % of control and 107 % of control.

Question: And the T/C (dose: 200.0 mg/kg/injection, vehicle: Klucel (hydroxypropylcellulose) (HPC))?
Answer: The T/C was 97 % of control.

Question: What about the T/C (dose: 400.0 mg/kg/injection, vehicle: Klucel (hydroxypropylcellulose) (HPC)) of the same compound?
Answer: Its T/C is 151 % of control.

Question: What does the source list for `CCN=C=NCCCN(C)C`?
Answer: T/C [8]: 109 % of control; T/C [9]: 114 % of control

Question: `[Cl][Pt+2][Cl].[NH-]c1cc(Cl)c(Cl)cc1[NH-]` was tested. Which T/C (dose: 20.0 mg/kg/injection, vehicle: saline with Tween-80) did it give?
Answer: The T/C was 97 % of control and 107 % of control.

Question: What about the T/C (dose: 40.0 mg/kg/injection, vehicle: saline with Tween-80) of the same compound?
Answer: Its T/C is 110 % of control and 101 % of control.

Question: What about the T/C (dose: 80.0 mg/kg/injection, vehicle: saline with Tween-80) of the same compound?
Answer: Its T/C is 110 % of control and 122 % of control.

Question: What about the T/C (dose: 160.0 mg/kg/injection, vehicle: saline with Tween-80) of the same compound?
Answer: The T/C was 111 % of control and 105 % of control.

Question: And the T/C (dose: 320.0 mg/kg/injection, vehicle: saline with Tween-80)?
Answer: The T/C was 110 % of control and 106 % of control.
